Laboratory results taken from US9518018B2, “3-alkoxy, thioalkyl and amino-4-amino-6-(substituted)picolinates and their use as herbicides” (Dow AgroSciences LLC, priority 2011, dated 2016).

Assays:
Format in all cases: in vivo
[1] = tested on: EPHHL: poinsettia, wild (Euphorbia heterophylla); experiment: Pre-emergent Test I herbicidal activity; conditions: Table 5, 140 g ai/ha
Source text: (§1) Seeds of the desired test plant species were planted in a soil matrix prepared by mixing a loam soil (43 percent silt, 19 percent clay, and 38 percent sand, with a pH of about 8.1 and an organic matter content of about 1.5 percent) and sand in a 70 to 30 ratio. The soil matrix was contained in plastic pots with a surface area of 113 square centimeters. When required to ensure good germination and healthy plants, a fungicide treatment and/or other chemical or physical treatment was applied.
(§2) A weighed amount, determined by the highest rate to be tested, of each test compound was placed in a 25 mL glass vial and was dissolved in 6 mL of a 97:3 v/v (volume/volume) mixture of acetone and DMSO to obtain concentrated stock solutions. […] The stock solutions obtained were diluted with 18 mL of a 0.1% v/v aqueous solution of Tween® 20 surfactant to obtain spray solutions containing the highest application rate. Additional application rates were obtained by serial dilution of 12 mL of the high rate solution into a solution containing 3 mL of 97:3 v/v mixture of acetone and DMSO and 9 mL of the 0.1% v/v aqueous solution of Tween® 20 surfactant to obtain ½×, ¼×, ⅛× and 1/16× rates of the high rate. Compound requirements are based upon a 12 mL application volume at a rate of 187 L/ha. Formulated compounds were applied to the plant material with an overhead Mandel track sprayer equipped with 8002E nozzles calibrated to deliver 187 L/ha over an application area of 0.503 square meters at a spray height of 18 inches ([…]) above the soil surface. Control plants were sprayed in the same manner with the solvent blank.
(§3) The treated pots and control pots were placed in a greenhouse maintained with an approximate 15 hour photoperiod and temperatures of about 23-29° C. during the day and 22-28° C. during the night. Nutrients and water were added on a regular basis and supplemental lighting was provided with overhead metal halide 1000-Watt lamps as necessary. The water was added by top-irrigation. After 20-22 days, the condition of the test plants that germinated and grew as compared with that of the untreated plants that emerged and grew was determined visually and scored on a scale of 0 to 100 percent where 0 corresponds to no injury and 100 corresponds to complete kill or no emergence.

[2] = tested on: CHEAL: lambsquarters (Chenopodium album); experiment: Pre-emergent Test I herbicidal activity; conditions: Table 5, 140 g ai/ha
Source text: as §1, §2, §3

[3] = tested on: SETFA: foxtail, giant (Setaria faberi); experiment: Pre-emergent Test I herbicidal activity; conditions: Table 5, 140 g ai/ha
Source text: as §1, §2, §3

[4] = tested on: AMARE: pigweed, redroot (Amaranthus retroflexus); experiment: Pre-emergent Test I herbicidal activity; conditions: Table 5, 140 g ai/ha
Source text: as §1, §2, §3

[5] = tested on: ZEAMX: corn (Zea mays); experiment: Pre-emergent Test I herbicidal activity; conditions: Table 5, 140 g ai/ha
Source text: as §1, §2, §3

[6] = tested on: LIDDU = Lindernia dubia (L.) PENNELL (low falsepimpernel); experiment: In-water applied herbicidal activity in transplanted paddy rice; conditions: 21 DAA
Procedure: (§4) Rice seeds were planted in Sun Gro MetroMix 306 planting mixture, which typically has a pH of 6.0 to 6.8 and an organic matter content of about 30 percent, in plastic plug trays. Seedlings at the second or third leaf stage of growth were transplanted into 650 mL of mud contained in 960 mL non-perforated plastic pots with a surface area of 86.59 cm^2 four days prior to herbicide application. The paddy was created by filling the 2.5 to 3 cm headspace of the pots with water. When required to ensure good germination and healthy plants, a fungicide treatment and/or other chemical or physical treatment was applied. The plants were grown for 4-14 d in a greenhouse with an approximate 14-h photoperiod which was maintained at about 29° C. during the day and 26° C. during the night. Nutrients were added as Osmocote (17:6:10, Nitrogen:Phosphorus:Potassium (N:P:K)+minor nutrients) at 2 grams (g) per cup. Water was added on a regular basis to maintain the paddy flood, and supplemental lighting was provided with overhead metal halide 1000-Watt lamps as necessary. The plants were employed for testing when they reached the second or third true leaf stage. Treatments consisted of compounds 45, 34, and 66. For technical grade compounds, a weighed amount, determined by the highest rate to be tested, was placed in an individual 120 mL glass vial and was dissolved in 20 mL of acetone to obtain concentrated stock solutions. […] The concentrated stock solutions obtained were diluted with 20 mL of an aqueous mixture containing 2.5% Agri-dex crop oil concentrate (v/v). Applications were made by injecting an appropriate amount of the stock solution into the aqueous layer of the paddy. Control plants were treated in the same manner with the solvent blank. All treated plant material received the same concentration of acetone and crop oil concentrate. The treated plants and control plants were placed in a greenhouse as described above and water was added as needed to maintain a paddy flood. After approximately 3 weeks, the condition of the test plants, compared with that of the untreated plants, was determined visually and scored on a scale of 0 to 100 percent where 0 corresponds to no injury and 100 corresponds to complete kill. By applying the well-accepted probit analysis as described by J. Berkson in Journal of the […], 48, 565 (1953) and by D. Finney in “Probit Analysis” Cambridge University Press (1952) or by plotting the mean data and fitting a logarithmic curve to the portion of the data where there was a dose response using Microsoft Excel®, the above data can be used to calculate GR50 and GR90 values, which are defined as growth reduction factors that correspond to the effective dose of herbicide required to kill or control 50 percent or 90 percent, respectively, of a target plant.

[7] = tested on: CYPRO = Cyperus rotundus L. (purple nutsedge); experiment: as above; conditions: 21 DAA
Procedure: as §4

[8] = tested on: LEFCH = Leptochloa chinensis (L.) NEES (Chinese sprangletop); experiment: as above; conditions: 21 DAA
Procedure: as §4

[9] = dose to kill or control 50 percent
[10] = dose to kill or control 90 percent

Q: Which “Visual Growth Reduction (%)-21 Days after Application EPHHL” value [1] does the source give for `COc1c(N)cc(-c2ccc(Cl)cc2)nc1C(=O)O` [Compound 46] here?
A: The value was 100%.

Q: And the “Visual Growth Reduction (%)-21 Days after Application CHEAL” value [2]?
A: The value was 95%.

Q: What about the “Visual Growth Reduction (%)-21 Days after Application SETFA” value [3] of the same molecule?
A: Its value is 100%.

Q: And the “Visual Growth Reduction (%)-21 Days after Application AMARE” value [4]?
A: The value was 95%.

Q: And the “Visual Growth Reduction (%)-21 Days after Application ZEAMX” value [5]?
A: Its value is 0%.

Q: What does the source list for `COc1c(C(=O)OCc2ccccc2)nc(-c2ccc(Cl)c(OC)c2F)c(F)c1N` [Compound 66, benzyl 4-amino-6-(4-chloro-2-fluoro-3-methoxyphenyl)-5-fluoro-3-methoxypicolinate]?
A: Mean Visual Injury (%)-21 Days After Application LIDDU ([6]; 2.19 g ae/ha): 0%; Mean Visual Injury (%)-21 Days After Application LIDDU ([6]; 4.38 g ae/ha): 100%; Mean Visual Injury (%)-21 Days After Application LIDDU ([6]; 8.75 g ae/ha): 100%; Mean Visual Injury (%)-21 Days After Application LIDDU ([6]; 17.5 g ae/ha): 100%; Mean Visual Injury (%)-21 Days After Application LIDDU ([6]; 35 g ae/ha): 100%; Mean Visual Injury (%)-21 Days After Application LIDDU ([6]; 70 g ae/ha): 100%; GR50 LIDDU [6, 9]: <4.38 g ae/ha; GR90 LIDDU [6, 10]: <4.38 g ae/ha; Mean Visual Injury (%)-21 Days After Application CYPRO ([7]; 4.38 g ae/ha): 65%; Mean Visual Injury (%)-21 Days After Application CYPRO ([7]; 8.75 g ae/ha): 100%; Mean Visual Injury (%)-21 Days After Application CYPRO ([7]; 17.5 g ae/ha): 100%; Mean Visual Injury (%)-21 Days After Application CYPRO ([7]; 35 g ae/ha): 100%; Mean Visual Injury (%)-21 Days After Application CYPRO ([7]; 70 g ae/ha): 100%; GR50 CYPRO [7, 9]: <4.38 g ae/ha; GR90 CYPRO [7, 10]: 7.2 g ae/ha; Mean Visual Injury (%)-21 Days After Application LEFCH ([8]; 2.19 g ae/ha): 0%; Mean Visual Injury (%)-21 Days After Application LEFCH ([8]; 4.38 g ae/ha): 0%; Mean Visual Injury (%)-21 Days After Application LEFCH ([8]; 8.75 g ae/ha): 0%; Mean Visual Injury (%)-21 Days After Application LEFCH ([8]; 17.5 g ae/ha): 0%; Mean Visual Injury (%)-21 Days After Application LEFCH ([8]; 35 g ae/ha): 16%; Mean Visual Injury (%)-21 Days After Application LEFCH ([8]; 70 g ae/ha): 100%; GR50 LEFCH [8, 9]: 40.9 g ae/ha; GR90 LEFCH [8, 10]: 71.2 g ae/ha
